According to PMC11280343, “Rubus urticifolius Compounds with Antioxidant Activity, and Inhibition Potential against Tyrosinase, Melanin, Hyaluronidase, Elastase, and Collagenase” (Pharmaceuticals, 2024):
“And” between values parts separate entries of the source, which are not always exact repeats. Equal entries are not always repeated. Where two headings read alike, the source gives them in different places. Numbered stars: 1 amine (or outer) side, 2 acyl side, 3 side chain; on linkers, the order of the positions; unused ones are H or OH. Bridge positions count the residues as written; N and C are the ends. Square brackets hold non-standard residues; d marks the D form. Peptide text beside a SMILES is read from it. I, II: the chains in the order shown. Actinocin(9to1) = Cc1c2oc3c(C)ccc(C(=O)[*:1])c3nc-2c(C(=O)[*:2])c(N)c1=O; NMeV = CN[C@H](C(=O)O)C(C)C; Sar = CNCC(=O)O

Tests used:
[1] = NR viability assay, WS1; assay type: cell-based, Homo sapiens; conditions: human; WS1, NR assay, 72 h; read-out: Viability CC50
Protocol: (§1) The HEK001 (Homo sapiens cutaneous keratinocyte, CCL-2404), WS1 (Homo sapiens cutaneous fibroblast, CRL-1502), HMCB (Homo sapiens cutaneous melanoma, CRL-9607), and THP-1 (Homo sapiens peripheral blood monocyte, TIB-202) cell lines used in this study were obtained from the American Type Culture Collection (ATCC, Manassas, VA, USA). Cultivated in a Roswell Park Memorial Institute (RPMI) 1640 medium (RPMI 1640 Merck, Cat. No. R7755, New York, NY, USA) supplemented with 2 mM L-glutamine (≥99% Merck, Cat. No. 56-85-9), 10% fetal bovine serum (FBS Merck, Cat. No. TMS-016, St. Louis, MO, USA), and 10,000 units of penicillin and 10 mg streptomycin/mL (Merck, Cat. No. P4333, St. Louis, MO, USA) in culture flasks, the cells were maintained in an incubator under normoxic conditions (20–21% O2) and a humidified atmosphere (5% CO2 at 37 °C).
(§2) Mother solutions of samples (extracts, fractions, and compounds) were prepared at a concentration of […] using dimethyl sulfoxide (DMSO ≥ 99.9% Merck, Cat. No. 67-68-5, St. Louis, MO, USA) as the solvent. From these mother solutions, dilutions were prepared at concentrations ranging from 100 to 0.20 μg/mL or μM in culture medium containing 0.5% DMSO. Additionally, a negative control group consisting solely of culture medium with 0.5% DMSO was included to assess its potential cytotoxic effect on the cells.
(§3) Cell viability was evaluated using a colorimetric assay in 96-well plates, employing 3-amino-7-dimethylamino-2-methylphenazine hydrochloride salt reagent (NR, Merck, Cat. No. 553-24-2, St. Louis, MO, USA).
(§4) HEK001, WS1, HMCB, and THP-1 cell lines were cultured in 96-well plates at 37 °C with 5% CO2 until > 90% confluency was achieved (1 × 10^6 cells/well). Subsequently, the cultures were treated with sample dilutions (100–0.20 μg/mL or μM) for 72 h at 37 °C with 5% CO2 in phenol red-free RPMI. The supernatant was then discarded and the cells were washed with phosphate-buffered saline (PBS) before being incubated with […] NR (50 μg/mL; 173 μM) for 3 h at 37 °C with 5% CO2. NR labelling was performed after DMSO treatment. After incubation, the labelled sample dilutions were rapidly washed with a fixative solution composed of 1% calcium chloride (CaCl2 Merck, Cat. No. 10043-52-4, St. Louis, MO, USA) and 0.5% formaldehyde solution (≥36.0% in H2O Merck, Cat. No. 50-00-0, St. Louis, MO, USA), then diluted with 100 μL of the NR extraction solution. Finally, the plates were read at 540 nm using a microplate reader (Anthos 2020, version 2.0.5, Biochrom Ltd., Cambridge, UK).

[2] = NR viability assay, HMCB; assay type: cell-based, Homo sapiens; conditions: human; HMCB, NR assay, 72 h; read-out: Viability CC50
Protocol: as §1, §2, §3, §4

[3] = NR viability assay, THP-1; assay type: cell-based, Homo sapiens; conditions: human, THP-1, NR assay, 72 h; read-out: Viability CC50
Protocol: as §1, §2, §3, §4

[4] = tested on: HEK001, WS1, HMCB, and THP-1 cell lines; assay: Viability assay, positive control value of the method (cell line not stated); assay type: cell-based; conditions: Homo sapiens
Protocol: as §3, §4

[5] = NR viability assay, HEK001; assay type: cell-based, Homo sapiens; conditions: human; HEK001, NR assay, 72 h; read-out: Viability CC50
Protocol: as §1, §2, §3, §4

[6] = tested on: Nrf2; assay: Nrf2 activation assay, THP-1; assay type: cell-based; conditions: Homo sapiens, THP-1, 72 h; read-out: Activation of Nrf2 production EC50
Protocol: (§5) To determine the antioxidant response of the samples (at the same concentration as in the viability assay), Nrf2 activation assay was used, following the protocol carried out by Apaza Ticona et al.. Cells were cultured in 96-well plates (1 × 10^6 cells/well). […] Absorbance was measured at 540 nm using a microplate reader.

[7] = tested on: Nrf2; assay: Nrf2 activation assay, HMCB; assay type: cell-based; conditions: Homo sapiens, 72 h, read-out: Activation of Nrf2 production EC50
Protocol: as §5

[8] = tested on: Nrf2; assay: Nrf2 activation assay, positive control value of the method (cell line not stated); assay type: cell-based; conditions: Homo sapiens
Protocol: as §5

[9] = tested on: Nrf2; assay: Nrf2 activation assay, HEK001; assay type: cell-based; conditions: Homo sapiens, HEK001, 72 h; read-out: Activation of Nrf2 production EC50
Protocol: as §5

[10] = tested on: Nrf2; assay: Nrf2 activation assay, WS1; assay type: cell-based; conditions: Homo sapiens; WS1, 72 h; read-out: Activation of Nrf2 production EC50
Protocol: as §5

[11] = tested on: NF-κB; assay: NF-κB inhibition assay (LPS-stimulated), HMCB; assay type: cell-based; conditions: Homo sapiens, 72 h, read-out: NF-κB Inhibition at 72 h IC50 ± SEM
Protocol: as §5, with “anti-inflammatory activity” for “antioxidant response”, “NF-κB inhibition” for “Nrf2 activation”, “450” for “540”

[12] = tested on: NF-κB; assay: NF-κB inhibition assay, positive control value of the method (cell line not stated); assay type: cell-based; conditions: Homo sapiens
Protocol: as §5, with “anti-inflammatory activity” for “antioxidant response”, “NF-κB inhibition” for “Nrf2 activation”, “450” for “540”

[13] = tested on: NF-κB; assay: NF-κB inhibition assay (LPS-stimulated), THP-1; assay type: cell-based; conditions: Homo sapiens, THP-1, 72 h, read-out: NF-κB Inhibition at 72 h IC50 ± SEM
Protocol: as §5, with “anti-inflammatory activity” for “antioxidant response”, “NF-κB inhibition” for “Nrf2 activation”, “450” for “540”

[14] = tested on: NF-κB; assay: NF-κB inhibition assay (LPS-stimulated), WS1; assay type: cell-based; conditions: Homo sapiens, 72 h, read-out: NF-κB Inhibition at 72 h IC50 ± SEM
Protocol: as §5, with “anti-inflammatory activity” for “antioxidant response”, “NF-κB inhibition” for “Nrf2 activation”, “450” for “540”

[15] = tested on: NF-κB; assay: NF-κB inhibition assay (LPS-stimulated), HEK001; assay type: cell-based; conditions: Homo sapiens, HEK001, 72 h, read-out: NF-κB Inhibition at 72 h IC50 ± SEM
Protocol: as §5, with “anti-inflammatory activity” for “antioxidant response”, “NF-κB inhibition” for “Nrf2 activation”, “450” for “540”

[16] = biological target: T1, elastase from porcine pancreas (Sus scrofa, UniProt P00772); assay: Elastase-inhibitory effect assay; assay type: biochemical
T1 construct: elastase from porcine pancreas (7.5 units/mL); from tissue; host or cells: porcine pancreas
T1 sequence (P00772 27-266): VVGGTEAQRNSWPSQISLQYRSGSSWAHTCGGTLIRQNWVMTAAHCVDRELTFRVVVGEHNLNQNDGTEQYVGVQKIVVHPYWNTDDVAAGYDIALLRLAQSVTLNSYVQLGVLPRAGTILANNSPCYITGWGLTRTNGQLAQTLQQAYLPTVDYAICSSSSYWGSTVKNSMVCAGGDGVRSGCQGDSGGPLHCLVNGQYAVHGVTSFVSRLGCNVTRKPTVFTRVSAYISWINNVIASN
Protocol: The elastase-inhibitory effect was evaluated, implementing the protocol adapted from Tu and Tawata.
A mixture containing N-succinyl-Ala-Ala-Ala-p-nitroanilide (AAAPVN, Merck, Cat. No. 52299-14-6, St. Louis, MO, USA) elastase substrate in 0.1232 M Tris-HCl buffer solution (pH 8) was prepared to achieve a concentration of 1.015 mM. This elastase substrate was combined with 10 μL of the test samples at the same concentrations used as in the viability assay in 96-well plates and pre-incubated at room temperature (25 ± 5 °C) for 10 min. Subsequently, the reaction was initiated by adding 10 μL of elastase from porcine pancreas (7.5 units/mL) in Tris buffer solution to the pre-incubated mixtures. Absorbance was then measured at 410 nm using a microplate reader.

[17] = tested on: collagenase; assay: Collagenase inhibitory assay; assay type: biochemical
Protocol: A fixed weight of 1 mg of azo dye-impregnated collagen was measured in the test tubes. Subsequently, 800 μL of 0.1 M Tris-HCl (pH 7) and 100 μL of the samples at the same concentrations used as in the viability assay were added to each test tube. Next, 100 μL of collagenase (200 units/mL) was immediately mixed into the mixture and the tubes were incubated at 43 °C for 1 h. After incubation, the test tubes were centrifuged at 3000 rpm for 10 min. The supernatant from each tube was transferred into 96-well plates and the absorbance of each supernatant was measured at 550 nm using a microplate reader.

[18] = tested on: melanin production in HMCB cells; assay: Melanin content assay; assay type: cell-based; conditions: Homo sapiens; HMCB cells, 12 h; read-out: Inhibitory activity of melanin production IC50
Protocol: as §5, with “anti-melanogenic activity” for “antioxidant response”, “melanin inhibition” for “Nrf2 activation”, “HMCB cells” for “Cells”, “405” for “540”

[19] = biological target: T2, hyaluronidase (Bos taurus, UniProt Q2YDK3); conditions: cited from earlier work; for Inhibition of active hyaluronidase: 2 mM
T2 sequence (Q2YDK3 36-553): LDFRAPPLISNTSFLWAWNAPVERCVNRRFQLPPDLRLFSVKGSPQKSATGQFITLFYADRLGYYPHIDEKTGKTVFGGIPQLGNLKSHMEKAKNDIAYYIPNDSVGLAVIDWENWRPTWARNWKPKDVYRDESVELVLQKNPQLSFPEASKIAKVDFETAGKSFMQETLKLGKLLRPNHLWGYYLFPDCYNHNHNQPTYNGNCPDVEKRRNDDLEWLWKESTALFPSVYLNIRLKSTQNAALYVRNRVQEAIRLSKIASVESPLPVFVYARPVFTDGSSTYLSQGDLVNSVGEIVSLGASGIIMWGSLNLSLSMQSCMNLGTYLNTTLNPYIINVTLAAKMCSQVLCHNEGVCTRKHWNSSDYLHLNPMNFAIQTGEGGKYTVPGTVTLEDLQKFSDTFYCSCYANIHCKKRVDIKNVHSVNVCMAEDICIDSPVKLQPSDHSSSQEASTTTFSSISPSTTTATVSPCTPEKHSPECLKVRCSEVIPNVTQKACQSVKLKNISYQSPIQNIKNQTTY

[20] = equivalent value for the compounds
[21] = value for the extracts and fractions
[22] = inhibition percentage 'at an IC50', concentration not otherwise stated

Cc1c2oc3c(C)ccc(C(=O)N[C@@H]4C(=O)N[C@H](C(C)C)C(=O)N5CCC[C@H]5C(=O)N(C)CC(=O)N(C)[C@@H](C(C)C)C(=O)O[C@@H]4C)c3nc-2c(C(=O)N[C@@H]2C(=O)N[C@H](C(C)C)C(=O)N3CCC[C@H]3C(=O)N(C)CC(=O)N(C)[C@@H](C(C)C)C(=O)O[C@@H]2C)c(N)c1=O [ACTD, Actinomycin D, reference compound] (I: T[dV]P[Sar][NMeV] / II: T[dV]P[Sar][NMeV]; ester I:1-I:C, II:1-II:C; linker I:N-II:N via Actinocin(9to1))
CC50 at 72 h [1]: 0.0173 µg/mL and 8 nM | CC50 at 72 h [2]: 0.0161 µg/mL and 7 nM | CC50 at 72 h [3]: 0.0192 µg/mL and 9 nM | IC50 [4, 20]: 0.008 µM | IC50 [4, 21]: 0.01 µg/mL | CC50 at 72 h [5]: 0.0184 µg/mL and 9 nM

COC(=O)[C@]12CCC(C)(C)C[C@H]1[C@H]1C(=O)C=C3[C@@]4(C)C=C(C#N)C(=O)C(C)(C)[C@@H]4CC[C@@]3(C)[C@]1(C)CC2 [CDDO-Me, 2-Cyano-3,12-dioxo-oleana-1,9(11)-dien-28-oic acid methyl ester, reference compound]
EC50 [6]: 8e-05 µg/mL and 0.13 nM | EC50 [7]: 7e-05 µg/mL and 0.1 nM | EC50 [8, 20]: 0.00011 µM | EC50 [8, 21]: 0.07 ng/mL | EC50 [9]: 5e-05 µg/mL and 0.08 nM | EC50 [10]: 6e-05 µg/mL and 0.09 nM

CC1=C(O)C(=O)C=C2C1=CC=C1[C@@]2(C)CC[C@@]2(C)[C@@H]3C[C@](C)(C(=O)O)CC[C@]3(C)CC[C@]12C [Celastrol, reference compound]
IC50 [11]: 7.36 µM and 3.27 µg/mL | IC50 [12, 20]: 7.41 µM | IC50 [12, 21]: 3.34 µg/mL | IC50 [13]: 7.62 µM and 3.35 µg/mL | IC50 [14]: 7.41 µM and 3.29 µg/mL | IC50 [15]: 7.57 µM and 3.33 µg/mL

O=C(O[C@@H]1Cc2c(O)cc(O)cc2O[C@@H]1c1cc(O)c(O)c(O)c1)c1cc(O)c(O)c(O)c1 [EGCG, Epigallocatechin gallate, reference compound]
Elastase Inhibition (%) [16, 22]: 98.08 ± 1.74% and 94.44 ± 1.30% | Anti-Elastase IC50 ([16]; marked (*)): 114 µg/mL and 114.38 ± 3.07 µg/mL | IC50 ([16]; read-out: Anti-Elastase IC50): 250 µM | Collagenase Inhibition (%) [17, 22]: 98.81 ± 1.42% and 95.29 ± 2.09% | Anti-Collagenase IC50 ([17]; marked (*)): 114 µg/mL and 114.04 ± 3.07 µg/mL | IC50 ([17]; read-out: Anti-Collagenase IC50): 250 µM and 251 µM

O=c1cc(CO)occ1O [Kojic acid, reference compound]
IC50 [18]: 16.4 µM

COc1ccc(/C=C/C(=O)Nc2ccccc2C(=O)O)cc1OC [Tranilast]
Inhibition of active hyaluronidase ([19]; activator added): 50% | Inhibition of active hyaluronidase [19]: 75%

O=C(O)/C=C/c1ccccc1 [trans-cinnamic acid]
Hyaluronidase inhibition [19]: more than 60%
